# Read-outs that look alike come from different tables or passages of the source.
# Key:
# [1] = Kinetic solubility; format: physicochemical; conditions: for solubility at 2 h: PBS buffer, 25 °C, pH 7.4, aqueous buffer, kinetic from dmso stock
# [2] = test system: FOXO1 KTR translocation in T47D cells; test: FOXO1 KTR translocation; format: cell-based; conditions: for time to import of FOXO1-KTR into the nucleus: 3 μM, live cell imaging
# [3] = test system: FOXO1 KTR translocation in A2058 cells; test: FOXO1 KTR translocation; format: cell-based
# [4] = test system: PKB phosphorylation (Ser473) in T47D, MCF7, PC3 and A2058 cells; test: Washout, pPKB in-cell western; format: cell-based
# [5] = test system: PKB/Akt phosphorylation (Ser473) in T47D cells; test: pPKB/Akt in-cell western; format: cell-based; conditions: 1 h; for prevention of PKB phosphorylation: 3 μM to 0.8 nM
# [6] = test system: PKB/Akt phosphorylation (Ser473) in MCF7 cells; test: pPKB/Akt in-cell western; format: cell-based; conditions: MCF7, 1 h; for prevention of PKB phosphorylation: 3 μM to 0.8 nM
# [7] = Intrinsic warhead reactivity; format: physicochemical; conditions: 1 mM compound, 600 mM βME, 37 °C
# [8] = test system: PKB/Akt phosphorylation (Ser473) in SKOV3 cells; test: pPKB/Akt in-cell western; format: cell-based; conditions: read-out: pPKB/Akt IC50, 1 h of compound exposure
# [9] = target: Nanoluc-p110α fusion (Homo sapiens, UniProt P42336); test: NanoBRET tracer displacement / diffusion assay in HEK293 cells; format: cell-based; conditions: for increase in cellular permeability versus BYL719: diffusion coefficients
# [10] = test system: p110α; test: p110α protein levels by western blot; format: cell-based; conditions: 1 μM for 48 h
# [11] = test system: PI3K signaling (pPKB Ser473) in serum-starved MCF7 cells; test: Receptor ligand stimulated pPKB after washout, western blot; format: cell-based; conditions: for inhibition at 1 µM: Homo sapiens, MCF7, 2 h
# [12] = test system: PKB phosphorylation (Ser473) in MDA-MB-453, T47D and MCF7 cells; test: Washout, pPKB in-cell western; format: cell-based; conditions: 1 μM for 2 h then washout
# [13] = test system: PI3Kα mutant cell lines; test: Growth rate on intermittent exposure; format: cell-based; conditions: 1 μM for 4 h daily over 4 days
# [14] = test system: PI3Kα-mutant cell lines; test: Growth rate inhibition, panel comparison; format: cell-based; conditions: 72 h incubation, GR50
# Nanoluc-p110α fusion, sequence (P42336 whole entry, the tested form may be a part): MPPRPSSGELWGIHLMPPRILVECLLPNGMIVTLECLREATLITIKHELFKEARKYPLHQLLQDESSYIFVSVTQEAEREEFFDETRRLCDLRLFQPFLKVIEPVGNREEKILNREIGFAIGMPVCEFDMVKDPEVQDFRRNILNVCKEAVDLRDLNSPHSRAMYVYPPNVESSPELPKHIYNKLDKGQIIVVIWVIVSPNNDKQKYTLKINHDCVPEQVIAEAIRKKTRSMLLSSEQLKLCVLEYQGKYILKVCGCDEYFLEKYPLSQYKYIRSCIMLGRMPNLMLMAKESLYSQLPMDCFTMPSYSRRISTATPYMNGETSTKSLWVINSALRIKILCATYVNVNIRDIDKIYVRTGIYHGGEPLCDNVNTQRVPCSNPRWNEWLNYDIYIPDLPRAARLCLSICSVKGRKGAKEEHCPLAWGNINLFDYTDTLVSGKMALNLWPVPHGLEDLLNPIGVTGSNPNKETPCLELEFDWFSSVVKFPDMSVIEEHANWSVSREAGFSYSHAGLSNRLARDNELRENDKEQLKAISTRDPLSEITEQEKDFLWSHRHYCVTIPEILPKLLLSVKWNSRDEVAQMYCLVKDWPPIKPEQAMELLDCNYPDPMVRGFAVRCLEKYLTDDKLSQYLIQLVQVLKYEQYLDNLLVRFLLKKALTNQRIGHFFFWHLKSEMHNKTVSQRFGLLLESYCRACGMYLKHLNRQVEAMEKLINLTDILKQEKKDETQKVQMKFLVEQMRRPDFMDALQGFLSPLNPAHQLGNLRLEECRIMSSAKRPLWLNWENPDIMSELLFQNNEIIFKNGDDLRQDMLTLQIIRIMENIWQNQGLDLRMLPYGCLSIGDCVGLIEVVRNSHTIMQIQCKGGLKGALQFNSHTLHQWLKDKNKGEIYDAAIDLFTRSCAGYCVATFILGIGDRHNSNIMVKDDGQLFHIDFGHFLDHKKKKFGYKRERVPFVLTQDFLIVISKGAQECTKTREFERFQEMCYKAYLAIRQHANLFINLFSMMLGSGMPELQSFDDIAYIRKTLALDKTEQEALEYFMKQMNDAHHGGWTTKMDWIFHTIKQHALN
# Nanoluc-p110α fusion, sequence (P27986 whole entry partner, the tested form may be a part): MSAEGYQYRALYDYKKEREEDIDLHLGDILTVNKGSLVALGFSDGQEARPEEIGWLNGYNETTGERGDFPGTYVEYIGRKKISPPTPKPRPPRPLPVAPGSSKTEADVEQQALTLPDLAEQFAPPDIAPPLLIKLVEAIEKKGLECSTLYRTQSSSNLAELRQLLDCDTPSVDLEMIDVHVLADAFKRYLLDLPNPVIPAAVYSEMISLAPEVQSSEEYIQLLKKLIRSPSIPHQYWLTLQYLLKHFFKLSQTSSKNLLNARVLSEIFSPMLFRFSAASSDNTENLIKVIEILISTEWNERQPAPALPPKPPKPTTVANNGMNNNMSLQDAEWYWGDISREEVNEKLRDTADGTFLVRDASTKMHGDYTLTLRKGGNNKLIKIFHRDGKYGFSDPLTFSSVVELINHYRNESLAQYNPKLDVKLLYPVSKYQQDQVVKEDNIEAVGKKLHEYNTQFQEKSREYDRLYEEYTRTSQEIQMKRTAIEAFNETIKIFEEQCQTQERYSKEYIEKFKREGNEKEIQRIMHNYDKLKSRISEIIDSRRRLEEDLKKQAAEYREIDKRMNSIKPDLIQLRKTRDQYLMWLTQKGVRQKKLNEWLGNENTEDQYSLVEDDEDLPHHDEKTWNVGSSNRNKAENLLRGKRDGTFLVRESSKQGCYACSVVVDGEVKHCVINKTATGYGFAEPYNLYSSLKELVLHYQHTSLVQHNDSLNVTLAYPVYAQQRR
smiles,measurement,setting,value
"Cc1nc(NC(=O)N2CCC[C@H]2C(N)=O)sc1-c1ccnc(C(C)(C)C(F)(F)F)c1 [BYL719, reference compound]",solubility at 2 h,[1],49 µM
same,time to import of FOXO1-KTR into the nucleus,[2],< 20 min
same,FOXO1-KTR nuclear import IC90,[2]; 1 h incubation,not able to induce full nuclear translocation
same,FOXO1-KTR nuclear translocation IC90,"[3]; A2058, 1 h incubation",completely ineffective
same,reactivation of PI3K/PKB signaling after removal of inhibitor,"[4]; all cell lines, 2 h incubation then washout",reactivated PI3K/PBK signaling within the first hour
CC[C@H](Nc1ncnc2[nH]cnc12)c1nc2cccc(F)c2c(=O)n1-c1ccccc1 [CAL101],prevention of PKB phosphorylation,[5],did not prevent PKB phosphorylation
same,prevention of PKB phosphorylation,[6],did not prevent PKB phosphorylation
"CC(C)=CC(=O)CCC(=O)N1CCN(Cc2cc3nc(-c4cccc5[nH]ncc45)nc(N4CCOCC4)c3s2)CC1 [CNX1351, reference compound]",Solubility,[1]; kinetic solubility at pH 7.4 in PBS,10 µM
same,k chem × 10^4,[7],2.2 M^−1 s^−1
same,IC50,[8],172 nM
C=CC(=O)N1CCC(C(=O)NCC(=O)N2CCN(c3nc(-c4cnc(N)nc4C(F)F)nc(N4CCOCC4)n3)CC2)CC1 [Compound 1],solubility at 2 h,[1],333 µM
same,IC50,[8],86 nM
C=CC(=O)N1CCC(C(=O)N(C)CC(=O)N2CCN(c3nc(-c4cnc(N)nc4C(F)F)nc(N4CCOCC4)n3)CC2)CC1 [Compound 2],solubility at 2 h,[1],383 µM
same,IC50,[8],82 nM
C=CC(=O)N1CCC(CN(C)CC(=O)N2CCN(c3nc(-c4cnc(N)nc4C(F)F)nc(N4CCOCC4)n3)CC2)CC1 [Compound 3],solubility at 2 h,[1],363 µM
same,IC50,[8],38 nM
C=CC(=O)N1CCC(C(=O)NCCN2CCN(c3nc(-c4cnc(N)nc4C(F)F)nc(N4CCOCC4)n3)CC2)CC1 [Compound 4],k chem × 10^4,[7],~5.2 ^e M^−1 s^−1
same,IC50,[8],69 nM
C=CC(=O)N1CCC(CCCC(=O)N2CCN(c3nc(-c4cnc(N)nc4C(F)F)nc(N4CCOCC4)n3)CC2)CC1 [Compound 7],IC50,[8],22 nM
same,better cellular potency (lower pPKB IC50) as compared to BYL719,[5],5 fold
same,better cellular potency (lower pPKB IC50) as compared to BYL719,[6],8 fold
same,persistence of nuclear FOXO1-KTR localization after washout,[2]; 3 μM then washout,> 10 h
same,time to import of FOXO1-KTR into the nucleus,[2],< 20 min
same,IC90,"[2]; Homo sapiens, 1 h, read-out: FOXO1-KTR nuclear import IC90",50 nM
same,time to nuclear FOXO1 KTR localization,"[3]; A2058, 3 μM, live cell imaging",> 40 min
same,IC90,"[3]; Homo sapiens, A2058, 1 h, read-out: FOXO1-KTR nuclear translocation IC90",1660 nM
same,PI3K/PKB signaling after washout,[4]; PTEN-deficient cell lines,~50%
same,duration of pathway inhibition after washout,"[4]; T47D and MCF7 cells, 3 μM for 2 h then washout",> 18 h
C=CC(=O)N1CCC(COCC(=O)N2CCN(c3nc(-c4cnc(N)nc4C(F)F)nc(N4CCOCC4)n3)CC2)CC1 [Compound 8],IC50,[8],19 nM
same,increase in cellular permeability versus BYL719,[9],2- to 3 fold
C=CC(=O)N1CCC(COCC(=O)N2CCN(c3nc(-c4cnc(N)nc4C(F)F)nc(N4CCOC[C@@H]4C)n3)CC2)CC1 [Compound 9],solubility at 2 h,[1],357 µM
same,IC50,[8],19 nM
same,increase in cellular permeability versus BYL719,[9],2- to 3 fold
same,faster permeation into cells as compared to 7,"[9]; human, 4 h",ca. 2.8 ×
same,depletion of p110α,[10]; HCC1954 and MDA-MB-453 cells,"prominent, indistinguishable depletion of p110α"
same,depletion of p110α,[10]; MCF7 and T47D cells,insignificant
same,inhibition at 1 µM,[11]; read-out: inhibition of PI3K signaling in response to CXCL12,91%
same,inhibition at 1 µM,[11]; read-out: inhibition of PI3K signaling in response to EGF,98%
same,duration of loss of detectable pPKB after washout,[12],up to 72 h
same,growth rate,[13],≤ 0.5
same,more potent growth inhibition than reference compounds BYL719 and GDC-0077,[14],2- to 273 fold
same,more potent than the reversible analogue 9r,[14],6- to 70 fold
CCC(=O)N1CCC(COCC(=O)N2CCN(c3nc(-c4cnc(N)nc4C(F)F)nc(N4CCOC[C@@H]4C)n3)CC2)CC1 [Compound 9r],time to equilibrium of BRET signal decay,"[9]; HEK293, 200 nM Tracer K-3",ca. 20 min
same,increase in cellular permeability versus BYL719,[9],2- to 3 fold
"C[C@H](Nc1ccc2c(c1)OCCn1cc(N3C(=O)OC[C@H]3C(F)F)nc1-2)C(N)=O [GDC-0077, reference compound]",solubility at 2 h,[1],357 µM
same,depletion of p110α,[10]; HCC1954 and MDA-MB-453 cells,"prominent, indistinguishable depletion of p110α"
same,depletion of p110α,[10]; MCF7 and T47D cells,insignificant
"C=CC(=O)N1CCC[C@@H](n2nc(-c3ccc(Oc4ccccc4)cc3)c3c(N)ncnc32)C1 [Ibrutinib, reference compound]",solubility at 2 h,[1],10 µM
Cc1cc(C(C)Nc2ccccc2)c2nc(N3CCOCC3)cc(=O)n2c1 (centres unmarked) [TGX221],prevention of PKB phosphorylation,[5],did not prevent PKB phosphorylation
same,prevention of PKB phosphorylation,[6],did not prevent PKB phosphorylation
same,"suppression of the remaining PI3K signaling, CXCL12","[11]; MCF7, TGX221 1 μM after 9-wo",6%
same,"suppression of the remaining PI3K signaling, EGF","[11]; MCF7, TGX221 1 μM after 9-wo",2%
same,"suppression of the remaining PI3K signaling, insulin","[11]; MCF7, TGX221 1 μM after 9-wo",12%

# From article PMC11575505 (Chemical Science, 2024)
